# Measured values from patent US11970497B2, “Tricyclic AKR1C3 dependent KARS inhibitors” (Novartis AG, priority 2019, dated 2024).
# Key:
# [1] = system: H460 (NRF2 pathway mutant cell line with high AKR1C3 expression); test: In vitro cell proliferation assay (CellTiter-Glo), H460; format: cell-based; settings: Homo sapiens, NCI-H460, 72 h; H460 cells, 3 days, CellTiter-Glo, top concentration 10 μM; read-out: H460 Qualified absolute AC50
# Method in brief: (§1)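 Luminescent CellTiter-Glo readout after 3-day compound exposure at 37 °C; 8-point 1:5 series, top 10 μM final. Seeding: 800 cells/well for H460, 2000 cells/well for Hara, RPMI-1640 plus 10% FBS. AC50 and percentage activity derived after normalizing to DMSO (1%) and MG132 (30 μM) controls.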
# [2] = system: Hara (NRF2 pathway wild type cell line with low AKR1C3 expression); test: In vitro cell proliferation assay (CellTiter-Glo), Hara; format: cell-based; settings: 72 h; Hara cells, 3 days, CellTiter-Glo, top concentration 10 μM; read-out: HARA Qualified absolute AC50
# Method in brief: as §1
SMILES,AC50 [1],AC50 [2]
"CN1c2ccc(F)cc2C(=O)CC12CCN(C(=O)NCc1ccc(F)c(NCCO)c1F)CC2 [Example 91, N-(2,4-difluoro-3-((2-hydroxyethyl)amino)benzyl)-6′-fluoro-1′-methyl-4′-oxo-3′,4′-dihydro-1′H-spiro[piperidine-4,2′-quinoline]-1-carboxamide]",0.451 µM,> 10 µM
"CC(O)c1cc(CNC(=O)N2CCC3(CC2)CC(=O)c2cc(F)ccc2N3C)ccc1F (stereo not shown) [Example 92, 6′-fluoro-N-(4-fluoro-3-(1-hydroxyethyl)benzyl)-1′-methyl-4′-oxo-3′,4′-dihydro-1′H-spiro[piperidine-4,2′-quinoline]-1-carboxamide]",0.467 µM,> 10 µM
"Cn1ncc(Cl)c1CNC(=O)N1CCC2(CC1)CC(=O)c1cc(F)ccc1N2 [Example 93, N-((4-chloro-1-methyl-1H-pyrazol-5-yl)methyl)-6′-fluoro-4′-oxo-3′,4′-dihydro-1′H-spiro[piperidine-4,2′-quinoline]-1-carboxamide]",5.73 µM,> 10 µM
"C[C@@H](O)CNC(=O)c1cc(CNC(=O)N2CCC3(CC2)CC(=O)c2cc(F)ccc2N3C)ccc1F [Example 94, (R)-6′-fluoro-N-(4-fluoro-3-((2-hydroxypropyl)carbamoyl)benzyl)-1′-methyl-4′-oxo-3′,4′-dihydro-1′H-spiro[piperidine-4,2′-quinoline]-1-carboxamide]",0.471 µM,9.49 µM
"Nc1cc(CNC(=O)N2CCC3(CC2)CC(=O)c2cc(F)ccc2N3)ccc1F [Example 95, N-(3-amino-4-fluorobenzyl)-6′-fluoro-4′-oxo-3′,4′-dihydro-1′H-spiro[piperidine-4,2′-quinoline]-1-carboxamide]",0.485 µM,> 10 µM
"Nc1ccc(CNC(=O)N2CCC3(CC2)CC(=O)c2cc(F)ccc2N3)c(F)c1 [Example 98, N-(4-amino-2-fluorobenzyl)-6′-fluoro-4′-oxo-3′,4′-dihydro-1′H-spiro[piperidine-4,2′-quinoline]-1-carboxamide]",0.498 µM,> 10 µM
"COCCNc1cc(CNC(=O)N2CCC3(CC2)CC(=O)c2cc(F)ccc2N3)ccc1F [Example 99, 6′-fluoro-N-(4-fluoro-3-((2-methoxyethyl)amino)benzyl)-4′-oxo-3′,4′-dihydro-1′H-spiro[piperidine-4,2′-quinoline]-1-carboxamide]",0.507 µM,> 10 µM
"O=C(NCC(F)(F)F)c1cc(CNC(=O)N2CCC3(CC2)CC(=O)c2cc(F)ccc2N3)ccc1F [Example 101, 6′-fluoro-N-(4-fluoro-3-((2,2,2-trifluoroethyl)carbamoyl)benzyl)-4′-oxo-3′,4′-dihydro-1′H-spiro[piperidine-4,2′-quinoline]-1-carboxamide]",0.528 µM,> 10 µM
"COC1CN(c2cc(CNC(=O)N3CCC4(CC3)CC(=O)c3cc(F)ccc3N4)ccc2F)C1 [Example 102, 6′-fluoro-N-(4-fluoro-3-(3-methoxyazetidin-1-yl)benzyl)-4′-oxo-3′,4′-dihydro-1′H-spiro[piperidine-4,2′-quinoline]-1-carboxamide]",0.555 µM,3.72 µM
"NC(=O)Cc1cc(CNC(=O)N2CCC3(CC2)CC(=O)c2cc(F)ccc2N3)ccc1F [Example 103, N-(3-(2-amino-2-oxoethyl)-4-fluorobenzyl)-6′-fluoro-4′-oxo-3′,4′-dihydro-1′Hspiro[piperidine-4,2′-quinoline]-1-carboxamide]",0.558 µM,> 10 µM
"Nc1ccc(CNC(=O)N2CCC3(CC2)CC(=O)c2cc(F)ccc2N3)c(C(F)(F)F)c1 [Example 104, N-(4-amino-2-(trifluoromethyl)benzyl)-6′-fluoro-4′-oxo-3′,4′-dihydro-1′H-spiro[piperidine-4,2′-quinoline]-1-carboxamide]",0.573 µM,> 10 µM
"O=C(NC1COC1)c1cc(CNC(=O)N2CCC3(CC2)CC(=O)c2cc(F)ccc2N3)ccc1F [Example 105, 6′-fluoro-N-(4-fluoro-3-(oxetan-3-ylcarbamoyl)benzyl)-4′-oxo-3′,4′-dihydro-1′H-spiro[piperidine-4,2′-quinoline]-1-carboxamide]",0.58 µM,> 10 µM
"O=C1CC2(CCN(C(=O)NCc3cnoc3)CC2)Nc2ccc(F)cc21 [Example 107, 6′-fluoro-N-(isoxazol-4-ylmethyl)-4′-oxo-3′,4′-dihydro-1′H-spiro[piperidine-4,2′-quinoline]-1-carboxamide]",0.612 µM,> 10 µM
"O=C1CC2(CCN(C(=O)NCc3ccc(OC(F)F)c(F)c3)CC2)Nc2c(F)cc(F)cc21 [Example 108, N-(4-(difluoromethoxy)-3-fluorobenzyl)-6′,8′-difluoro-4′-oxo-3′,4′-dihydro-1′H-spiro[piperidine-4,2′-quinoline]-1-carboxamide]",0.646 µM,3.18 µM
"NC(=O)c1c(F)ccc(CNC(=O)N2CCC3(CC2)CC(=O)c2cc(F)ccc2N3)c1F [Example 109, N-(3-carbamoyl-2,4-difluorobenzyl)-6′-fluoro-4′-oxo-3′,4′-dihydro-1′H-spiro[piperidine-4,2′-quinoline]-1-carboxamide]",0.69 µM,> 10 µM
"Nc1ccc(CNC(=O)N2CCC3(CC2)CC(=O)c2cc(F)ccc2N3)c(Cl)c1 [Example 111, N-(4-amino-2-chlorobenzyl)-6′-fluoro-4′-oxo-3′,4′-dihydro-1′H-spiro[piperidine-4,2′-quinoline]-1-carboxamide]",0.733 µM,> 10 µM
"Nc1ccc(CNC(=O)N2CCC3(CC2)CC(=O)c2cc(F)ccc2N3)cc1C(F)(F)F [Example 112, N-(4-amino-3-(trifluoromethyl)benzyl)-6′-fluoro-4′-oxo-3′,4′-dihydro-1′H-spiro[piperidine-4,2′-quinoline]-1-carboxamide]",0.783 µM,> 10 µM
"COc1cc(F)ccc1CNC(=O)N1CCC2(CC1)CC(=O)c1cc(F)ccc1N2 [Example 114, 6′-fluoro-N-(4-fluoro-2-methoxybenzyl)-4′-oxo-3′,4′-dihydro-1′H-spiro[piperidine-4,2′-quinoline]-1-carboxamide]",0.913 µM,4.43 µM
"COc1cc(CNC(=O)N2CCC3(CC2)CC(=O)c2cc(F)cc(F)c2N3)ccn1 [Example 115, 6′,8′-difluoro-N-((2-methoxypyridin-4-yl)methyl)-4′-oxo-3′,4′-dihydro-1′H-spiro[piperidine-4,2′-quinoline]-1-carboxamide]",0.93 µM,> 10 µM
"Cc1cc(N)ccc1CNC(=O)N1CCC2(CC1)CC(=O)c1cc(F)ccc1N2 [Example 116, N-(4-amino-2-methylbenzyl)-6′-fluoro-4′-oxo-3′,4′-dihydro-1′H-spiro[piperidine-4,2′-quinoline]-1-carboxamide]",0.935 µM,> 10 µM
"C[C@H](O)CNC(=O)c1cc(CNC(=O)N2CCC3(CC2)CC(=O)c2cc(F)ccc2N3C)ccc1F [Example 117, (S)-6′-fluoro-N-(4-fluoro-3-((2-hydroxypropyl)carbamoyl)benzyl)-1′-methyl-4′-oxo-3′,4′-dihydro-1′H-spiro[piperidine-4,2′-quinoline]-1-carboxamide]",0.956 µM,> 10 µM
"O=C1CC2(CCN(C(=O)NCc3ccon3)CC2)Nc2ccc(F)cc21 [Example 118, 6′-fluoro-N-(isoxazol-3-ylmethyl)-4′-oxo-3′,4′-dihydro-1′H-spiro[piperidine-4,2′-quinoline]-1-carboxamide]",1.01 µM,> 10 µM
"Cc1cc(CNC(=O)N2CCC3(CC2)CC(=O)c2cc(F)ccc2N3)ccc1N [Example 119, N-(4-amino-3-methylbenzyl)-6′-fluoro-4′-oxo-3′,4′-dihydro-1′H-spiro[piperidine-4,2′-quinoline]-1-carboxamide]",1.02 µM,> 10 µM
"O=C1CC2(CCN(C(=O)NCc3ccc4cc[nH]c4c3)CC2)Nc2ccc(F)cc21 [Example 120, N-((1H-indol-6-yl)methyl)-6′-fluoro-4′-oxo-3′,4′-dihydro-1′H-spiro[piperidine-4,2′-quinoline]-1-carboxamide]",1.05 µM,> 10 µM
"Cc1ccc(CNC(=O)N2CCC3(CC2)CC(=O)c2cc(F)cc(F)c2N3)s1 [Example 123, 6′,8′-difluoro-N-((5-methylthiophen-2-yl)methyl)-4′-oxo-3′,4′-dihydro-1′H-spiro[piperidine-4,2′-quinoline]-1-carboxamide]",1.14 µM,5.39 µM
"O=C1CC2(CCN(C(=O)NCc3ccno3)CC2)Nc2ccc(F)cc21 [Example 124, 6′-fluoro-N-(isoxazol-5-ylmethyl)-4′-oxo-3′,4′-dihydro-1′H-spiro[piperidine-4,2′-quinoline]-1-carboxamide]",1.16 µM,> 10 µM
"O=C1CC2(CCN(C(=O)NCc3ccc(F)nc3)CC2)Nc2c(F)cc(F)cc21 [Example 125, 6′,8′-difluoro-N-((6-fluoropyridin-3-yl)methyl)-4′-oxo-3′,4′-dihydro-1′H-spiro[piperidine-4,2′-quinoline]-1-carboxamide]",1.17 µM,> 10 µM
"Nc1cc(CNC(=O)N2CCC3(CC2)CC(=O)c2cc(F)ccc2N3)c(F)cc1F [Example 126, N-(5-amino-2,4-difluorobenzyl)-6′-fluoro-4′-oxo-3′,4′-dihydro-1′H-spiro[piperidine-4,2′-quinoline]-1-carboxamide]",1.29 µM,> 10 µM
"O=C1CC2(CCN(C(=O)NCc3cccc(CO)c3)CC2)Nc2c(F)cc(F)cc21 [Example 129, 6′,8′-difluoro-N-(3-(hydroxymethyl)benzyl)-4′-oxo-3′,4′-dihydro-1′H-spiro[piperidine-4,2′-quinoline]-1-carboxamide]",1.52 µM,> 10 µM
